In patent EP2818472A1, “Imidazo[4,5-c]pyridine and pyrrolo[3,2-c]pyridine compounds as G-protein-coupled receptor kinase 5 (GRK5) modulators” (Max-Planck-Gesellschaft zur Förderung der Wissenschaften …, priority 2013, dated 2014):

Each compound was assayed on beta-TC6 cells (assay: Insulin HTRF assay (relative activity Ar) in beta-TC6 cells). Settings: Mus musculus, Beta-TC6, 4 h, insulin HTRF, supernatant of beta-TC6 cells, incubation with test compound at 37°C for 2, 3, 4h; read-out: Ar (relative activity).
Format: cell-based, mouse
Method in brief: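 beta-TC6 cells (15k/well, seeded 24 or 48 h) washed, then exposed to compound in induction buffer (0.5% DMSO final) for 2, 3 or 4 h at 37°C.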
With `CC(=O)c1cccc(Nc2cc3c(cn2)cc(-c2cnn(C)c2)n3C)c1` [Compound 150, 1-[3-[[1-methyl-2-(1-methylpyrazol-4-yl)pyrrolo[3,2-c]pyridin-6-yl]amino]phenyl]ethanone] the Emax was 50 to 100%.
For `Cn1cc(-c2cc3cnc(Nc4cccc(F)c4)cc3n2C)cn1` [Compound 151, N-(3-fluorophenyl)-1-methyl-2-(1-methylpyrazol-4-yl)pyrrolo[3,2-c]pyridin-6-amine], the Emax was 50 to 100%.
`Cn1cc(-c2cc3cnc(Nc4ccc(S(C)(=O)=O)cc4)cc3n2C)cn1` [Compound 152, 1-methyl-2-(1-methylpyrazol-4-yl)-N-(4-methylsulfonylphenyl)pyrrolo[3,2-c]pyridin-6-amine] showed an Emax greater than 100%.
Work on `CSc1ccc(Nc2cc3c(cn2)cc(-c2cnn(C)c2)n3C)cc1` [Compound 153, 1-methyl-2-(1-methylpyrazol-4-yl)-N-(4-methylsulfanylphenyl)pyrrolo[3,2-c]pyridin-6-amine] yielded an Emax of 30 to 50%.
For `CN1CCN(c2cc3c(cn2)cc(-c2cnn(C)c2)n3Cc2ccccc2)CC1` [Compound 154, 1-benzyl-6-(4-methylpiperazin-1-yl)-2-(1-methylpyrazol-4-yl)pyrrolo[3,2-c]pyridine], the Emax was 30 to 50%.
Work on `Cn1cc(-c2cc3cnc(N4CCOCC4)cc3n2Cc2ccccc2)cn1` [Compound 155, 4-[1-benzyl-2-(1-methylpyrazol-4-yl)pyrrolo[3,2-c]pyridin-6-yl]morpholine] yielded an Emax of 50 to 100%.
Work on `Cn1cc(-c2cc3cnc(Nc4cccc(NS(C)(=O)=O)c4)cc3n2Cc2ccccc2)cn1` [Compound 156, N-[3-[[1-benzyl-2-(1-methylpyrazol-4-yl)pyrrolo[3,2-c]pyridin-6-yl]amino]phenyl]methanesulfonamide] yielded an Emax of 30 to 50%.
`CC(=O)Nc1cccc(Nc2cc3c(cn2)cc(-c2cnn(C)c2)n3Cc2ccccc2)c1` [Compound 157, N-[3-[[1-benzyl-2-(1-methylpyrazol-4-yl)pyrrolo[3,2-c]pyridin-6-yl]amino]phenyl]acetamide] was tested, and the Emax was 50 to 100%.
`COc1cc(Nc2cc3c(cn2)cc(-c2cccc(N(C)C(C)=O)c2)n3C)cc(OC)c1OC` [Compound 158, N-methyl-N-[3-[1-methyl-6-(3,4,5-trimethoxyanilino)pyrrolo[3,2-c]pyridin-2-yl]phenyl]acetamide] showed an Emax of 50 to 100%.
Compound `CC(=O)N(C)c1cccc(-c2cc3cnc(Nc4ccc(C(N)=O)cc4)cc3n2C)c1` [Compound 159, 4-[[2-[3-[acetyl(methyl)amino]phenyl]-1-methyl-pyrrolo[3,2-c]pyridin-6-yl]amino]benzamide] has an Emax of 50 to 100%.
`COc1ccc(Nc2cc3c(cn2)cc(-c2cccc(N(C)C(C)=O)c2)n3C)cc1OC` [Compound 160, N-[3-[6-(3,4-dimethoxyanilino)-1-methyl-pyrrolo[3,2-c]pyridin-2-yl]phenyl]-N-methyl-acetamide] was tested, and the Emax was 50 to 100%.
In the case of `COc1ccc(Nc2cc3c(cn2)cc(-c2cccc(N(C)C(C)=O)c2)n3C)cn1` [Compound 161, N-[3-[6-[(6-methoxy-3-pyridyl)amino]-1-methyl-pyrrolo[3,2-c]pyridin-2-yl]phenyl]-N-methyl-acetamide], the Emax is reported as 50 to 100%.
`CC(=O)N(C)c1cccc(-c2cc3cnc(Nc4cccnc4)cc3n2C)c1` [Compound 162, N-methyl-N-[3-[1-methyl-6-(3-pyridylamino)pyrrolo[3,2-c]pyridin-2-yl]phenyl]acetamide] was tested, and the Emax was 50 to 100%.
In the case of `CC(=O)N(C)c1cccc(-c2cc3cnc(Nc4ccc(N5CCOCC5)cc4)cc3n2C)c1` [Compound 163, N-methyl-N-[3-[1-methyl-6-(4-morpholinoanilino)pyrrolo[3,2-c]pyridin-2-yl]phenyl]acetamide], the Emax is reported as 50 to 100%.
In the case of `CC(=O)N(C)c1cccc(-c2cc3cnc(Nc4ccc(N5CCN(C)CC5)cc4)cc3n2C)c1` [Compound 164, N-methyl-N-[3-[1-methyl-6-[4-(4-methylpiperazin-1-yl)anilino]pyrrolo[3,2-c]pyridin-2-yl]phenyl]acetamide], the Emax is reported as 50 to 100%.
In the case of `CC(=O)N(C)c1cccc(-c2cc3cnc(Nc4cccc(N(C)C)c4)cc3n2C)c1` [Compound 165, N-[3-[6-[3-(dimethylamino)anilino]-1-methyl-pyrrolo[3,2-c]pyridin-2-yl]phenyl]-N-methyl-acetamide], the Emax is reported as greater than 100%.
For `COc1ccc(Nc2cc3c(cn2)cc(-c2cccc(N(C)C(C)=O)c2)n3C)cc1` [Compound 166, N-[3-[6-(4-methoxyanilino)-1-methyl-pyrrolo[3,2-c]pyridin-2-yl]phenyl]-N-methyl-acetamide], the Emax was 30 to 50%.
For `CC(=O)N(C)c1cccc(-c2cc3cnc(Nc4ccccn4)cc3n2C)c1` [Compound 167, N-methyl-N-[3-[1-methyl-6-(2-pyridylamino)pyrrolo[3,2-c]pyridin-2-yl]phenyl]acetamide], the Emax was 30 to 50%.
Compound `CC(=O)N(C)c1cccc(-c2cc3cnc(Nc4ccc(C#N)cc4)cc3n2C)c1` [Compound 168, N-[3-[6-(4-cyanoanilino)-1-methyl-pyrrolo[3,2-c]pyridin-2-yl]phenyl]-N-methyl-acetamide] has an Emax of 30 to 50%.
In the case of `CC(=O)N(C)c1cccc(-c2cc3cnc(Nc4ccc5c(c4)OCO5)cc3n2C)c1` [Compound 169, N-[3-[6-(1,3-benzodioxol-5-ylamino)-1-methyl-pyrrolo[3,2-c]pyridin-2-yl]phenyl]-N-methyl-acetamide], the Emax is reported as 30 to 50%.
With `CC(=O)N(C)c1cccc(-c2cc3cnc(Nc4cccc(O)c4)cc3n2C)c1` [Compound 170, N-[3-[6-(3-hydroxyanilino)-1-methyl-pyrrolo[3,2-c]pyridin-2-yl]phenyl]-N-methyl-acetamide] the Emax was 50 to 100%.
`CC(=O)N(C)c1cccc(-c2cc3cnc(N4CCOCC4)cc3n2C)c1` [Compound 171, N-methyl-N-[3-(1-methyl-6-morpholino-pyrrolo[3,2-c]pyridin-2-yl)phenyl]acetamide] was tested, and the Emax was 50 to 100%.
`CC(=O)N(C)c1cccc(-c2cc3cnc(Nc4ccc(C(=O)N(C)C)cc4)cc3n2C)c1` [Compound 172, 4-[[2-[3-[acetyl(methyl)amino]phenyl]-1-methyl-pyrrolo[3,2-c]pyridin-6-yl]amino]-N,N-dimethyl-benzamide] was tested, and the Emax was 50 to 100%.
With `CC(=O)N(C)c1cccc(-c2cc3cnc(Nc4ccc(S(C)(=O)=O)cc4)cc3n2C)c1` [Compound 173, N-methyl-N-[3-[1-methyl-6-(4-methylsulfonylanilino)pyrrolo[3,2-c]pyridin-2-yl]phenyl]acetamide] the Emax was 30 to 50%.
`COc1cc(Nc2cc3[nH]c(-c4ccccc4)cc3cn2)cc(OC)c1OC` [Compound 174, 2-phenyl-N-(3,4,5-trimethoxyphenyl)-1H-pyrrolo[3,2-c]pyridin-6-amine] was tested, and the Emax was 50 to 100%.
In the case of `COc1ccc(Nc2cc3[nH]c(-c4ccccc4)cc3cn2)cc1OC` [Compound 175, N-(3,4-dimethoxyphenyl)-2-phenyl-1 H-pyrrolo[3,2-c]pyridin-6-amine], the Emax is reported as 50 to 100%.
For `c1ccc(-c2cc3cnc(Nc4ccc(N5CCOCC5)cc4)cc3[nH]2)cc1` [Compound 176, N-(4-morpholinophenyl)-2-phenyl-1H-pyrrolo[3,2-c]pyridin-6-amine], the Emax was 50 to 100%.
For `CN1CCN(c2ccc(Nc3cc4[nH]c(-c5ccccc5)cc4cn3)cc2)CC1` [Compound 177, N-[4-(4-methylpiperazin-1-yl)phenyl]-2-phenyl-1H-pyrrolo[3,2-c]pyridin-6-amine], the Emax was 50 to 100%.
`c1ccc(-c2cc3cnc(Nc4ccncc4)cc3[nH]2)cc1` [Compound 178, 2-phenyl-N-(4-pyridyl)-1H-pyrrolo[3,2-c]pyridin-6-amine] was tested, and the Emax was 30 to 50%.
In the case of `Fc1ccc(Nc2cc3[nH]c(-c4ccccc4)cc3cn2)cc1` [Compound 179, N-(4-fluorophenyl)-2-phenyl-1H-pyrrolo[3,2-c]pyridin-6-amine], the Emax is reported as 30 to 50%.
Compound `Oc1cccc(Nc2cc3[nH]c(-c4ccccc4)cc3cn2)c1` [Compound 180, 3-[(2-phenyl-1H-pyrrolo[3,2-c]pyridin-6-yl)amino]phenol] has an Emax of 50 to 100%.
`c1ccc(-c2cc3cnc(N4CCOCC4)cc3[nH]2)cc1` [Compound 181, 4-(2-phenyl-1H-pyrrolo[3,2-c]pyridin-6-yl)morpholine] gave an Emax greater than 100%.
`CN(C)C(=O)c1ccc(Nc2cc3[nH]c(-c4ccccc4)cc3cn2)cc1` [Compound 182, N,N-dimethyl-4-[(2-phenyl-1H-pyrrolo[3,2-c]pyridin-6-yl)amino]benzamide] was tested, and the Emax was 50 to 100%.
With `CC(=O)Nc1cccc(Nc2cc3[nH]c(-c4ccccc4)cc3cn2)c1` [Compound 183, N-[3-[(2-phenyl-1H-pyrrolo[3,2-c]pyridin-6-yl)amino]phenyl]acetamide] the Emax was 50 to 100%.
`c1ccc(Cn2c(-c3ccccc3)cc3cnc(Nc4ccncn4)cc32)cc1` [Compound 184, 1-benzyl-2-phenyl-N-pyrimidin-4-yl-pyrrolo[3,2-c]pyridin-6-amine] was tested, and the Emax was 30 to 50%.
`Fc1cccc(-c2cc3c(N4CCOCC4)nccc3[nH]2)c1` [Compound 187, 4-[2-(3-fluorophenyl)-1H-pyrrolo[3,2-c]pyridin-4-yl]morpholine] was tested, and the Emax was 30 to 50%.
For `CN(C)C(=O)c1ccc(-c2cc3c(N4CCOCC4)nccc3n2C)cc1` [Compound 188, N,N-dimethyl-4-(1-methyl-4-morpholino-pyrrolo[3,2-c]pyridin-2-yl)benzamide], the Emax was 0 to 30%.
Compound `CN(C)c1ccc(-c2cc3c(N4CCOCC4)nccc3[nH]2)cc1` [Compound 189, N,N-dimethyl-4-(4-morpholino-1H-pyrrolo[3,2-c]pyridin-2-yl)aniline] has an Emax greater than 100%.
`c1cc2[nH]c(-c3ccsc3)cc2c(N2CCOCC2)n1` [Compound 191, 4-[2-(3-thienyl)-1H-pyrrolo[3,2-c]pyridin-4-yl]morpholine] was tested, and the Emax was 50 to 100%.
`COc1cc(OC)cc(-c2cc3c(N4CCOCC4)nccc3n2C)c1` [Compound 192, 4-[2-(3,5-dimethoxyphenyl)-1-methyl-pyrrolo[3,2-c]pyridin-4-yl]morpholine] gave an Emax of 0 to 30%.
`COc1ccccc1-c1cc2c(N3CCOCC3)nccc2[nH]1` [Compound 193, 4-[2-(2-methoxyphenyl)-1H-pyrrolo[3,2-c]pyridin-4-yl]morpholine] showed an Emax of 50 to 100%.
`Cn1c(-c2cccc(Cl)c2)cc2c(N3CCOCC3)nccc21` [Compound 195, 4-[2-(3-chlorophenyl)-1-methyl-pyrrolo[3,2-c]pyridin-4-yl]morpholine] gave an Emax of 30 to 50%.
